Data as given in patent US20260241046A1, “PROSTATE-SPECIFIC MEMBRANE ANTIGEN RECEPTOR-TARGETING RADIOPHARMACEUTICALS AND USES THEREOF” (Nuclidium AG, priority 2024, published 2026).

Experiments:
[1] = system: LNCaP xenografted mice; experiment: PET/CT imaging in mice; assay type: in vivo
Description: (§1) Unless otherwise specified, the in vivo studies were performed on athymic nude Foxn1^nu 4-6-week-old mice. Animals were injected in the shoulder with LNCaP cells (10^7 cells/200 μL) suspended in 1:1 (v: v) EMEM EBS medium and Matrigel. The in vivo experiments were performed when tumors reached a volume between 100-500 mm^3. At the intervention, all mice were between 7 and 11 weeks old. All animal experiments were performed following the guidelines for the use of living animals in scientific studies and the Swiss regulations for the protection of animals.
LNCap xenografted mice were injected i.v. into the tail vein with 4-8 MBq (400 pmol) of [^61Cu]Cu-NODAGA-PSMA I&T diluted in 100 μL saline solution. Dynamic PET scans were acquired for 1 hour upon injection of the radiotracer. The mice were euthanized using carbon dioxide at 4 hours post-injection, the bladder was mechanically emptied, and static PET scans were acquired for 30 min. PET images were obtained using the β-CUBE PET scanner system (MOLECUBES, Gent, Belgium) and were decay corrected and reconstructed with the VivoQuant software version 4.0. Tomograms and helical CT scans of the whole mouse were first acquired using a NanoSPECT/CTTM scanner (Bioscan Inc.). CT images were reconstructed using CTReco (version r1.146), resulting in a pixel size of 0.2 mm. […]

[2] = system: LNCaP xenografted mice; experiment: Biodistribution studies in LNCaP xenografted mice; assay type: in vivo
Description: as §1
Quantitative biodistribution studies were performed on LNCaP xenografted mice to determine the distribution of [^61Cu]Cu-NODAGA-PSMA I&T following i.v. injection into the tail vein. The dose of the administered radiopharmaceutical was between 1.5-3.5 MBq ([…]) diluted to 100 μL with saline solution. The mice were divided into two groups of eight (5 males and 3 females) and euthanized at 1- and 4-hours post-injection. The organs of interest were then collected, rinsed, blotted, weighed, and analyzed in a gamma counter. The results were expressed as the percentage of injected activity per gram of tissue (% IA/g) and reported as mean±standard deviation in Table 25.

[3] = system: LNCaP cells; experiment: In vitro cellular uptake and internalization; assay type: cell-based, human; conditions: for Cell surface fraction / Internalised fraction / Total uptake: % of total applied activity
Description: The cellular uptake of [^61Cu]Cu-NODAGA-PSMA I&T was studied in vitro using intact LNCaP cells seeded overnight in 6-well plates. On the day of the experiment, the cells were washed and incubated with [^61Cu]Cu-NODAGA-PSMA I&T at different time points, either alone or in the presence of 2-PMPA (10 μM) as a blocking agent, to distinguish between specific and non-specific uptake. At each investigated time point, the medium containing the unbound (free) [^61Cu]Cu-NODAGA-PSMA I&T was removed, followed by two washing steps with ice-cold phosphate-buffered saline. The cells were then treated for 2×5 min with ice-cold glycine solution (0.05 M, pH 2.8) to detach the cell surface-bound tracer (acid released). Afterwards, the cells containing the internalized [^61Cu]Cu-NODAGA-PSMA I&T were detached with 1 M sodium hydroxide at 37° C. and collected for measurement. The specific cell surface-bound and internalized tracer was expressed as a percentage of the total applied activity after subtracting the non-specific values. The results are presented in Table 23 as a mean value (n=3±standard deviation).

With O=C([O-])CN1CCN(CC(=O)[O-])CCN([C@H](CCC(=O)N[C@H](Cc2ccc(O)c(I)c2)C(=O)N[C@H](Cc2ccccc2)C(=O)N[C@H](CCCCNC(=O)CCCCCCC(=O)NCCCC[C@H](NC(=O)N[C@@H](CCC(=O)O)C(=O)O)C(=O)O)C(=O)O)C(=O)O)CC1.[61Cu+2] [[^61Cu]Cu-NODAGA-PSMA I&T] the “time of maximum accumulation in the tumor” value [1] was 1 hour post-injection, the “time of optimal tumor-to-background signal ratio” value [1] was 4 hours post-injection and the “Biodistribution, Adrenal” value ([2]; 1 hour post-injection) was 17.3±3.26 % IA/g. For the same compound, the “Biodistribution, Blood” value ([2]; 1 hour post-injection) was 0.28 ± 0.06 % IA/g, the “Biodistribution, Bone” value ([2]; 1 hour post-injection) was 2.73 ± 0.91 % IA/g and the “Biodistribution, Heart” value ([2]; 1 hour post-injection) was 0.45 ± 0.15 % IA/g. For the same compound, the “Biodistribution, Intestine” value ([2]; 1 hour post-injection) was 2.11 ± 0.78 % IA/g, the “Biodistribution, Kidneys” value ([2]; 1 hour post-injection) was 118±13 % IA/g and the “Biodistribution, LNCaP-tumor” value ([2]; 1 hour post-injection) was 14.0±5.0 % IA/g. For the same compound, the “Biodistribution, Liver” value ([2]; 1 hour post-injection) was 1.02 ± 0.28 % IA/g, the “Biodistribution, Lung” value ([2]; 1 hour post-injection) was 1.69 ± 0.45 % IA/g and the “Biodistribution, Muscle” value ([2]; 1 hour post-injection) was 1.12 ± 0.32 % IA/g. For the same compound, the “Biodistribution, Pancreas” value ([2]; 1 hour post-injection) was 0.97 ± 0.36 % IA/g, the “Biodistribution, Salivary glands” value ([2]; 1 hour post-injection) was 2.01±0.33 % IA/g and the “Biodistribution, Spleen” value ([2]; 1 hour post-injection) was 6.04±1.87 % IA/g. The “Biodistribution, Stomach” value ([2]; 1 hour post-injection) was 1.13 ± 0.20 % IA/g, the Tumor/Blood uptake ratio ([2]; 1 hour post-injection) was 50 and the Tumor/Kidney uptake ratio ([2]; 1 hour post-injection) was 0.12. For the same compound, the Tumor/Liver uptake ratio ([2]; 1 hour post-injection) was 14, the Tumor/Muscles uptake ratio ([2]; 1 hour post-injection) was 13 and the “Tumor/Salivary gland uptake ratio” value ([2]; 1 hour post-injection) was 7. The “Biodistribution, Adrenal” value ([2]; 4 hours post-injection) was 8.32±2.87 % IA/g, the “Biodistribution, Blood” value ([2]; 4 hours post-injection) was 0.10±0.03 % IA/g and the “Biodistribution, Bone” value ([2]; 4 hours post-injection) was 1.34 ± 0.48 % IA/g. For the same compound, the “Biodistribution, Heart” value ([2]; 4 hours post-injection) was 0.22 ± 0.05 % IA/g, the “Biodistribution, Intestine” value ([2]; 4 hours post-injection) was 1.06 ± 0.50 % IA/g and the “Biodistribution, Kidneys” value ([2]; 4 hours post-injection) was 91±10 % IA/g. For the same compound, the “Biodistribution, LNCaP-tumor” value ([2]; 4 hours post-injection) was 10.7±3.3 % IA/g, the “Biodistribution, Liver” value ([2]; 4 hours post-injection) was 0.72 ± 0.11 % IA/g and the “Biodistribution, Lung” value ([2]; 4 hours post-injection) was 0.74 ± 0.19 % IA/g. For the same compound, the “Biodistribution, Muscle” value ([2]; 4 hours post-injection) was 0.50 ± 0.22 % IA/g, the “Biodistribution, Pancreas” value ([2]; 4 hours post-injection) was 0.45 ± 0.09 % IA/g and the “Biodistribution, Salivary glands” value ([2]; 4 hours post-injection) was 0.52±0.06 % IA/g. The “Biodistribution, Spleen” value ([2]; 4 hours post-injection) was 1.28 ± 0.39 % IA/g, the “Biodistribution, Stomach” value ([2]; 4 hours post-injection) was 0.66 ± 0.15 % IA/g and the Tumor/Blood uptake ratio ([2]; 4 hours post-injection) was 107. The Tumor/Kidney uptake ratio ([2]; 4 hours post-injection) was 0.12, the Tumor/Liver uptake ratio ([2]; 4 hours post-injection) was 15 and the Tumor/Muscles uptake ratio ([2]; 4 hours post-injection) was 21. The “Tumor/Salivary gland uptake ratio” value ([2]; 4 hours post-injection) was 21, the “time over which the radiotracer was continuously internalized” value [3] was “up to 120 minutes” and the Cell surface fraction ([3]; 5 min) was 4.3 ± 0.7%. For the same compound, the Internalised fraction ([3]; 5 min) was 1.2 ± 0.2%, the Total uptake ([3]; 5 min) was 5.5 ± 0.9% and the Cell surface fraction ([3]; 15 min) was 8.2 ± 1.0%. The Internalised fraction ([3]; 15 min) was 3.9 ± 0.4%, the Total uptake ([3]; 15 min) was 12.1 ± 1.4% and the Cell surface fraction ([3]; 30 min) was 10.7 ± 1.0%. The Internalised fraction ([3]; 30 min) was 7.0 ± 1.1%, the Total uptake ([3]; 30 min) was 17.7 ± 2.1% and the Cell surface fraction ([3]; 60 min) was 10.8 ± 1.8%. It also gave an Internalised fraction ([3]; 60 min) of 11.7 ± 1.6%, a Total uptake ([3]; 60 min) of 22.5 ± 3.4% and a Cell surface fraction ([3]; 120 min) of 10.2 ± 1.8%. For the same compound, the Internalised fraction ([3]; 120 min) was 17.6 ± 2.8%, the Total uptake ([3]; 120 min) was 27.8 ± 4.6% and the “time of highest accumulation on the cell membrane” value ([3]; saturation of binding sites) was at most 30 min.
